The subject of one test is Trypanosoma cruzi. The experiment in a line: Antitrypanosomal activity against epimastigote stage of Trypanosoma cruzi Y assessed as parasite growth inhibition after 5 days by spectrophotometric analysis. It is filed as functional.
Test [1] can be described thus: Cytotoxicity against human fibroblasts assessed as growth inhibition after 24 hrs by MTT assay. The test is classed as cell-based. The conditions noted are these: Fibroblast.
The nature of test [2]: Selectivity index, ratio of IC50 for human fibroblasts to GI50 for epimastigote stage of Trypanosoma cruzi Y.

Structures are written as SMILES. The source made the active and inactive calls. No cut-off for these calls is given here. Where only a bound is given, the exact number is not on record here.

A word on the GI50: it is the concentration giving 50% growth inhibition. The IC50 is the concentration that gives 50% inhibition.

With `CN(C)c1ccc(C(=O)N/N=C/c2ccc3c(c2)no[n+]3[O-])cc1`, the GI50 result in the test on Trypanosoma cruzi is “inactive”.
As to `CCOc1ccc(C(=O)N/N=C/c2ccc3c(c2)no[n+]3[O-])cc1`, in the test on Trypanosoma cruzi, the log1/GI50 turned out to be 5.02. For the same compound, in the test with Trypanosoma cruzi (Trypanosoma cruzi, Y, 120 h), the GI50 is 9.62 µM.
Consider `CCc1ccc(C(=O)N/N=C/c2ccc3c(c2)no[n+]3[O-])cc1`, for which the log1/GI50 in the test on Trypanosoma cruzi was 5. Besides, the 50% growth inhibitory concentration (GI50) in the test on Trypanosoma cruzi (Trypanosoma cruzi, Y, 120 h) is 9.91 µM.
Turning to `O=C(N/N=C/c1ccc([N+](=O)[O-])o1)c1ccc(O)cc1` [NIFUROXAZIDE], the log1/GI50 in the test on Trypanosoma cruzi was 3.92. For the same compound, in the test with Trypanosoma cruzi (Trypanosoma cruzi, Y, 120 h), the GI50 is 120 µM. Further, the IC50 in test [1] stood at 77.4 µM. Moreover, the “Selectivity Index” value in test [2] stood at 0.64.
In the case of `CC(=O)c1ccc(C(=O)N/N=C/c2ccc3c(c2)no[n+]3[O-])cc1`, in the test with Trypanosoma cruzi, the log1/GI50 was 4.8. Also, in the test on Trypanosoma cruzi (Trypanosoma cruzi, Y, 120 h), the GI50 was found to be 16 µM.
Turning to `CC(C)(C)c1ccc(C(=O)N/N=C/c2ccc3c(c2)no[n+]3[O-])cc1`, the log1/GI50 with Trypanosoma cruzi was 5.24. In the test with Trypanosoma cruzi (Trypanosoma cruzi, Y, 120 h), the GI50 is 5.45 µM. Besides, the 50% inhibitory concentration (IC50) in test [1] is over 200 µM. Besides, the “Selectivity Index” value in test [2] is over 36.7.
In the same order, the values of `O=C(N/N=C/c1ccc2c(c1)no[n+]2[O-])c1ccc(Br)cc1` are 5.11, 7.78 µM, over 200 µM and over 25.71.
On to `O=C(N/N=C/c1ccc2c(c1)no[n+]2[O-])c1ccc(F)cc1`, for which the log1/GI50 with Trypanosoma cruzi was determined as 4.82. Also, the GI50 with Trypanosoma cruzi (Trypanosoma cruzi, Y, 120 h) amounted to 15.3 µM.
Take `CCCOc1ccc(C(=O)N/N=C/c2ccc3c(c2)no[n+]3[O-])cc1`: in the test on Trypanosoma cruzi, the log1/GI50 worked out at 5.39. For the same compound, in the test on Trypanosoma cruzi (Trypanosoma cruzi, Y, 120 h), the GI50 came out at 4.07 µM. In addition, the 50% inhibitory concentration (IC50) in test [1] was over 200 µM. For the same compound, the “Selectivity Index” value in test [2] was over 49.14.
In the same order, the values of `O=C(N/N=C/c1ccc2c(c1)no[n+]2[O-])c1ccc(I)cc1` are 5.21, 6.11 µM, over 200 µM and over 32.73.
As for `N#Cc1ccc(C(=O)N/N=C/c2ccc3c(c2)no[n+]3[O-])cc1`, the log1/GI50 in the test with Trypanosoma cruzi is 4.58. For the same compound, the GI50 in the test with Trypanosoma cruzi (Trypanosoma cruzi, Y, 120 h) is 26.6 µM.
`COc1ccc(C(=O)N/N=C/c2ccc3c(c2)no[n+]3[O-])cc1`: in the test on Trypanosoma cruzi, the log1/GI50 is recorded as 4.88. In the test with Trypanosoma cruzi (Trypanosoma cruzi, Y, 120 h), the GI50 came out at 13.2 µM.
On to `O=C(N/N=C/c1ccc2c(c1)no[n+]2[O-])c1ccc(Cl)c(Cl)c1`, for which the log1/GI50 in the test with Trypanosoma cruzi was 5.04. In the test on Trypanosoma cruzi (Trypanosoma cruzi, Y, 120 h), the GI50 is 9.07 µM. For the same compound, in test [1], the IC50 is 65 µM. Further, in test [2], the “Selectivity Index” value was 7.17.
As to `O=C(N/N=C/c1ccc2c(c1)no[n+]2[O-])c1ccc(O)cc1`, the GI50 entry with Trypanosoma cruzi was “inactive”.
In the case of `O=C(N/N=C/c1ccc2c(c1)no[n+]2[O-])c1ccc(Cl)cc1Cl`, the log1/GI50 in the test on Trypanosoma cruzi is listed as 5.02. Besides, in the test with Trypanosoma cruzi (Trypanosoma cruzi, Y, 120 h), the GI50 was found to be 9.54 µM. The IC50 in test [1] was determined as 38.3 µM. Moreover, in test [2], the “Selectivity Index” value amounted to 4.01.
For `CCCCOc1ccc(C(=O)N/N=C/c2ccc3c(c2)no[n+]3[O-])cc1`, in that order: 5.24, 5.78 µM, over 200 µM and over 34.6.
Consider `NS(=O)(=O)c1ccc(C(=O)N/N=C/c2ccc3c(c2)no[n+]3[O-])cc1`, for which the log1/GI50 in the test with Trypanosoma cruzi is listed as 4.22. The GI50 with Trypanosoma cruzi (Trypanosoma cruzi, Y, 120 h) was 60.4 µM. In addition, the IC50 in test [1] worked out at 60 µM. For the same compound, in test [2], the “Selectivity Index” value is recorded as 0.99.
For `CC(C)c1ccc(C(=O)N/N=C/c2ccc3c(c2)no[n+]3[O-])cc1`, in that order: 5.15, 7.12 µM, over 200 µM and over 28.09.
Turning to `CCCCc1ccc(C(=O)N/N=C/c2ccc3c(c2)no[n+]3[O-])cc1`, the log1/GI50 in the test on Trypanosoma cruzi was determined as 5.43. In addition, in the test with Trypanosoma cruzi (Trypanosoma cruzi, Y, 120 h), the GI50 came out at 3.72 µM. Besides, in test [1], the IC50 was over 200 µM. Also, the “Selectivity Index” value in test [2] is over 53.76.
As for `O=C(Cn1ccnc1[N+](=O)[O-])NCc1ccccc1` [BENZNIDAZOLE], in the test on Trypanosoma cruzi, the log1/GI50 stood at 4.68. In the test with Trypanosoma cruzi (Trypanosoma cruzi, Y, 120 h), the GI50 came to 22.7 µM. For the same compound, the IC50 in test [1] is over 200 µM. Moreover, the “Selectivity Index” value in test [2] is on record as over 9.6.
Regarding `O=C(N/N=C/c1ccc2c(c1)no[n+]2[O-])c1ccc(Cl)cc1`, in the test on Trypanosoma cruzi, the log1/GI50 stood at 5. Moreover, the GI50 in the test on Trypanosoma cruzi (Trypanosoma cruzi, Y, 120 h) is 9.96 µM.
For `O=C(N/N=C/c1ccc2c(c1)no[n+]2[O-])c1ccc([N+](=O)[O-])c(C(F)(F)F)c1`, in that order: 4.8 and 15.9 µM.
For the compound `O=C(N/N=C/c1ccc2c(c1)no[n+]2[O-])c1ccc([N+](=O)[O-])cc1`, the log1/GI50 with Trypanosoma cruzi is 4.75. Further, the GI50 with Trypanosoma cruzi (Trypanosoma cruzi, Y, 120 h) was determined as 17.8 µM.
In the same order, the values of `O=C(N/N=C/c1ccc2c(c1)no[n+]2[O-])c1ccc(C(F)(F)F)cc1` are 5.02 and 9.62 µM.
Consider `CC1CS(=O)(=O)CCN1/N=C/c1ccc([N+](=O)[O-])o1` (stereo unspecified) [NIFURTIMOX], for which, in the test on Trypanosoma cruzi, the log1/GI50 turned out to be 5.42. Further, the GI50 in the test on Trypanosoma cruzi (Trypanosoma cruzi, Y, 120 h) is 3.78 µM. In test [1], the IC50 is over 200 µM. Further, the “Selectivity Index” value in test [2] is over 52.91.
Turning to `Nc1ccc(C(=O)N/N=C/c2ccc3c(c2)no[n+]3[O-])cc1`, the log1/GI50 in the test with Trypanosoma cruzi was 3.93. Besides, the GI50 in the test with Trypanosoma cruzi (Trypanosoma cruzi, Y, 120 h) was 117 µM. Moreover, the IC50 in test [1] is over 200 µM. In addition, the “Selectivity Index” value in test [2] is 1.71.
For `CCCc1ccc(C(=O)N/N=C/c2ccc3c(c2)no[n+]3[O-])cc1`, the log1/GI50 with Trypanosoma cruzi turned out to be 5.52. Besides, the GI50 with Trypanosoma cruzi (Trypanosoma cruzi, Y, 120 h) worked out at 3.04 µM. Besides, the IC50 in test [1] is over 200 µM. The “Selectivity Index” value in test [2] is reported as over 65.79.
Turning to `Cc1ccc(C(=O)N/N=C/c2ccc3c(c2)no[n+]3[O-])cc1`, the log1/GI50 in the test on Trypanosoma cruzi is 4.93. The GI50 in the test on Trypanosoma cruzi (Trypanosoma cruzi, Y, 120 h) was found to be 11.9 µM.
In the same order, the values of `O=C(N/N=C/c1ccc2c(c1)no[n+]2[O-])c1ccccc1` are 4.77 and 16.9 µM.

These data come from ChEMBL document CHEMBL2390827, “Ligand-based design, synthesis, and experimental evaluation of novel benzofuroxan derivatives as anti-Trypanosoma cruzi agents” (Eur J Med Chem, 2013).
